Measured values reported in patent US20190060384A1, “COMPOSITION FOR TREATMENT OR PREVENTION OF LUNG CANCER AND A METHOD THEREFORE” (priority 2017, published 2019).

Assays:
[1] = Pharmacokinetics of gefitinib after repeated oral Lonicera flos; format: in vivo, Sprague-Dawley rats; conditions: for concentration at 0.5 h: 0.50 h; for AUC(0-t) / Cmax / Tmax / half-life: po, average
[2] = tested on: NCI-H520 non-small cell lung cancer cell xenograft; assay: NCI-H520 xenograft nude mice: tumor volume and tumor weight; format: in vivo, athymic nude mice
Excerpt: (§1) (1) Anticancer effects: Changes in tumor volume, tumor weight, tumor cell volume in a formed mass, and apoptotic cell percentages, and changes in immunoreactivities of caspase-3, PARP, NT, 4-HNE, CD31, Ki-67, COX-2, iNOS, and TNF-α in the formed mass

[3] = tested on: NCI-H520 tumor mass; assay: NCI-H520 xenograft nude mice: tumor mass histopathology and immunohistochemistry; format: in vivo, athymic nude mice
Excerpt: as §1

[4] = tested on: NCI-H520 cell xenograft nude mice; assay: NCI-H520 xenograft nude mice: tumor-related cachexia (body weight, periovarian fat pad); format: in vivo, athymic nude mice
[5] = tested on: NCI-H520 cell xenograft nude mice; assay: NCI-H520 xenograft nude mice: immune organ weights and histopathology (spleen, submandibular lymph node); format: in vivo, athymic nude mice
[6] = tested on: NCI-H520 cell xenograft nude mice; assay: NCI-H520 xenograft nude mice: serum IL-6 and IFN-γ contents; format: in vivo, athymic nude mice; conditions: vs tumor xenograft control, 35 days
Excerpt: (3) Effects of suppressing tumor-related cachexia: Changes in body weight, periovarian fat pad weight, and serum IL-6 content and histological change in a periovarian fat pad

[7] = tested on: NCI-H520 cell xenograft nude mice; assay: NCI-H520 xenograft nude mice: splenic and peritoneal NK cell activity; format: in vivo, athymic nude mice; conditions: vs tumor xenograft control, 35 days
[8] = tested on: NCI-H520 cell xenograft nude mice; assay: NCI-H520 xenograft nude mice: splenic cytokine contents (TNF-α, IL-1β, IL-10); format: in vivo, athymic nude mice
[9] = mouse, in vivo, po
Excerpt: (§2) Day 28; mortality, clinical symptoms, change in body weight, autopsy findings, hematological (14 items; Table 18) and hematochemical (20 items; Table 19) changes, histopathological changes (23 organs: brain cerebrum, cerebellum and bulbar, heart, thymus, lung, testis, epididymis, kidney, adrenal gland, spleen, liver, pancreas, alimentary tract esophagus, fundic portion, pyloric portion, duodenum, jejunum, ileum, cecum, colon and rectum, submandibular lymph node), and changes in content of liver lipid peroxidation and antioxidant defense system glutathione (GSH), and catalase (CAT) and superoxide dismutase (SOD) activities.

[10] = mouse, in vivo, po; remark: listed apart in the source
Excerpt: as §2

[11] = mouse, in vivo, po; remark: listed apart in the source
Excerpt: as §2

[12] = male, ICR, mouse, in vivo, po, 28 days
Excerpt: as §2

[13] = male, ICR, mouse, in vivo, po, 28 days; remark: listed apart in the source
Excerpt: as §2

[14] = tested on: liver lipid peroxidation, GSH, CAT, SOD; conditions: mouse, in vivo, po
Excerpt: as §2

[15] = tested on: NCI-H520 cells; assay: MTT cytotoxicity (cell viability)
Excerpt: Further, in order to observe the effects on tumor-related cachexia, a change in periovarian fat pad weight and a change in serum IL-6 content were observed, the changes in thickness of periovarian fat pad and diameter of adipocytes were each histopathologically observed, and in a tumor mass formed, the immunoreactivities of cleaved caspase-3 and poly(ADPribose) polymerase (PARP) as apoptotic markers, nitrotyrosine (NT) as an inducible nitric oxide synthases (iNOS)-related oxidative stress marker, 4-hydroxynonenal (4-HNE) as a lipid peroxidation marker, CD-31 and Ki-67 as angiogenic and cell proliferation markers, cyclooxygenase-2 (COX-2) as an inflammatory and angiogenic factor, and iNOS and TNF-α as cytokines related to immune activity were each observed by avidin-biotin-peroxidase (ABC)-based immunohistochemical methods.

[16] = male, Sprague-Dawley, rat, plasma, oral, 10 mg/kg, gefitinib 10 mg/kg oral, control (saline) rats
[17] = male, Sprague-Dawley, rat, plasma, oral, gefitinib 10 mg/kg oral after Lonicera flos 300 mg/kg oral 15 days
[18] = male, Sprague-Dawley, rat, plasma, 10 mg/kg, gefitinib 10 mg/kg oral, Control
[19] = male, Sprague-Dawley, rat, plasma, 10 mg/kg, gefitinib 10 mg/kg oral, Lonicera japonica group (15 days pre-treatment)
[20] = NCI-H520 xenograft nude mice, baseline
[21] = NCI-H520 xenograft nude mice, oral once daily 35 days
[22] = tumor mass, oral once daily 35 days
[23] = vs tumor xenograft control, 35 days
[24] = male, ICR (CrljOri:CD1[ICR]), 28 day

COc1cc2ncnc(Nc3ccc(F)c(Cl)c3)c2cc1OCCCN1CCOCC1 [Gefitinib, gefitinib]
concentration at 0.5 h [1, 16]: 703 ng/mL
concentration at 1 h [1, 16]: 805 ng/mL
concentration at 3 h [1, 16]: 762 ng/mL
concentration at 7 h [1, 16]: 824 ng/mL
concentration at 10 h [1, 16]: 439 ng/mL
concentration at 24 h [1, 16]: 70 ng/mL
concentration at 0.5 h [1, 17]: 571 ng/mL
concentration at 1 h [1, 17]: 645 ng/mL
concentration at 3 h [1, 17]: 531 ng/mL
concentration at 7 h [1, 17]: 579 ng/mL
concentration at 10 h [1, 17]: 430 ng/mL
concentration at 24 h [1, 17]: 53 ng/mL
concentration at […] ([1]; male, Sprague-Dawley, rat, plasma, oral, gefitinib 10 mg/kg oral after Lonicera flos 300 mg/kg oral 15 days, […]): 274 ng/mL
AUC(0-t) [1, 18]: 10800 ng·h/mL
Cmax [1, 18]: 921 ng/mL
Tmax [1, 18]: 3.55 h
half-life [1, 18]: 303 min
AUC(0-t) [1, 19]: 8740 ng·h/mL
Cmax [1, 19]: 736 ng/mL
Tmax [1, 19]: 2.89 h
half-life [1, 19]: 290 min
time of maximum plasma concentration after administration ([1]; orally administered, rats): about 4 hours
Tumor volume First administration [A] [2, 20]: 459.88 ± 129.50 mm^3
Tumor mass absolute weight [2, 21]: 1.321 ± 0.191 g
Tumor volume Sacrifice [B] [2, 21]: 2486.04 ± 480.24a mm^3
change of the amount of change in tumor volume ([2]; vs tumor xenograft group, 5 weeks): −68.18%
change in tumor absolute weight ([2]; vs tumor xenograft group, 35 days): −47.72%
Immunoreactive cell percentages: 4-hydroxynonenal [3, 22]: 29.12 ± 8.55a %/tumor cells
Immunoreactive cell percentages: CD31 [3, 22]: 29.90 ± 5.37a %/tumor cells
Immunoreactive cell percentages: Cleaved caspase-3 [3, 22]: 25.77 ± 5.73d %/tumor cells
Immunoreactive cell percentages: Cyclooxygenase-2 [3, 22]: 56.48 ± 12.30 %/tumor cells
Immunoreactive cell percentages: INOS [3, 22]: 5.34 ± 1.44 %/tumor cells
Immunoreactive cell percentages: Ki-67 [3, 22]: 45.34 ± 7.63a %/tumor cells
Immunoreactive cell percentages: Nitrotyrosine [3, 22]: 32.93 ± 10.64d %/tumor cells
Immunoreactive cell percentages: PARP [3, 22]: 22.27 ± 10.20d %/tumor cells
Tumor cell volume [3, 22]: 54.48 ± 12.96a %/mm2
change in proportion of the tumor tissue occupied by 4-HNE immunoreactive cells ([3]; vs tumor xenograft control): 928.20%
change in proportion of the tumor tissue occupied by CD31 immunoreactive cells ([3]; vs tumor xenograft control): −41.30%
change in proportion of the tumor tissue occupied by COX-2 immunoreactive cells ([3]; vs tumor xenograft control): 6.37%
change in proportion of the tumor tissue occupied by Ki-67 immunoreactive cells ([3]; vs tumor xenograft control): −41.57%
change in proportion of the tumor tissue occupied by NT immunoreactive cells ([3]; vs tumor xenograft control): 368.85%
change in proportion of the tumor tissue occupied by PARP immunoreactive cells ([3]; vs tumor xenograft control): 673.85%
change in proportion of the tumor tissue occupied by TNF-α immunoreactive cells ([3]; vs tumor xenograft control): 417.98%
change in proportion of the tumor tissue occupied by caspase-3 immunoreactive cells ([3]; vs tumor xenograft control): 364.72%
change in proportion of the tumor tissue occupied by iNOS immunoreactive cells ([3]; vs tumor xenograft control): −11.83%
change in proportion of the tumor tissue occupied by tumor cells ([3]; vs tumor xenograft control): −30.68%
Body weight gains ([4]; NCI-H520 xenograft nude mice, 35 days, based on actual body weight): −0.40 ± 1.01ac g
Body weights At first administration [4, 20]: 18.15 ± 1.42 g
Actual body weights (excluding tumor weight) [4, 21]: 17.75 ± 1.11ac g
Body weights At sacrifice [4, 21]: 19.08 ± 1.14ac g
Periovarian fat pad White adipocyte diameters [4, 21]: 13.52 ± 3.46 μm
Periovarian fat pad absolute weight [4, 21]: 0.008 ± 0.002e
change in accumulated periovarian fat pad thickness ([4]; vs tumor xenograft control): −11.13%
change in average periovarian white fat pad cell diameter ([4]; vs tumor xenograft control): 4.41%
change in periovarian fat pad absolute weight [4, 23]: −1.52%
change in actual body weight excluding the tumor weight ([4]; vs tumor xenograft control, final sacrifice date): −8.18%
Spleen Total thickness [5, 21]: 1097.00 ± 237.39a μm/central regions
Spleen White pulp diameters [5, 21]: 334.72 ± 47.47e μm/white pulp
Spleen White pulp numbers [5, 21]: 6.13 ± 1.81e /mm2
Spleen absolute weight [5, 21]: 0.059 ± 0.010a
Submandibular lymph node Cortex lymphoid cell follicle numbers [5, 21]: 7.50 ± 2.39a /mm2
Submandibular lymph node Cortex thickness [5, 21]: 155.92 ± 34.47a μm/lymph node
Submandibular lymph node Total thickness [5, 21]: 441.48 ± 114.06a μm/central regions
Submandibular lymph node absolute weight [5, 21]: 0.003 ± 0.001a
change in cortex lymphoid cell follicle numbers ([5]; vs tumor xenograft control): 15.38%
change in submandibular lymph node total thickness ([5]; vs tumor xenograft control): −8.92%
change in total splenic thickness ([5]; vs tumor xenograft control): −1.17%
change in splenic absolute weight [5, 23]: −1.46%
change in submandibular lymph node absolute weight [5, 23]: 4.00%
change in serum IFN-γ content [6]: −0.62%
change in serum IL-6 content [6]: 2.09%
change in peritoneal NK cell activity [7]: −4.12%
change in splenic NK cell activity [7]: −6.16%
Splenic Interleukin-1β content [8, 21]: 7.82 ± 2.32 days
Splenic Interleukin-10 content [8, 21]: 23.39 ± 12.60a
change in content of splenic IL-1β [8, 23]: −3.08%
change in content of splenic IL-10 [8, 23]: −7.27%
change in content of splenic TNF-α [8, 23]: −4.79%
Mortality, Days of treatment Periods (Day 0~27) ([9]; male, ICR (CrljOri:CD1[ICR])): 0
Clinical signs: Any abnormal signs [9, 24]: 0/7 (0%)
Clinical signs: Normal appearance [9, 24]: 7/7 (100%)
Mortality, At termination (at end of 28 days of administration) [9, 24]: 0
Mortality, Total [9, 24]: 0/7 (0%)
Body weight gain, Day 0~Day 14 [9]: 6.53 ± 0.65
Body weight gain, Day 0~Day 28 [9]: 3.26 ± 0.57b
Body weight gain, Day 14~Day 27 [9]: 1.80 ± 0.62
BASO [10]: 1.11 ± 0.21%
EOS [10]: 0.36 ± 0.24%
HCT [10]: 34.06 ± 2.18a %
HGB [10]: 14.87 ± 0.97a g/dl
LYM [10]: 90.22 ± 0.91c %
MCH [10]: 21.01 ± 1.93 pg
MCHC [10]: 42.31 ± 4.13 g/dL
MCV [10]: 49.81 ± 3.97 fL
MONO [10]: 3.59 ± 0.83a %
NEU [10]: 2.95 ± 0.87c %
PLT [10]: 760.00 ± 143.30 K/μL
RBC [10]: 6.30 ± 0.35c M/μL
RET [10]: 0.43 ± 0.37 ea/1000
WBC [10]: 7.50 ± 0.49e K/μL
ALB [11]: 1.39 ± 0.25a g/dL
ALP [11]: 107.00 ± 22.41 IU/L
ALT [11]: 215.00 ± 33.87d IU/L
AST [11]: 29.014 ± 23.57d IU/L
BIL [11]: 0.14 ± 0.05 mg/dL
BUN [11]: 18.19 ± 0.89 mg/dL
CRE [11]: 0.39 ± 0.18 mg/dL
GLU [11]: 92.43 ± 7.93 mg/dL
Globulin [11]: 3.73 ± 0.39a g/dL
K [11]: 9.97 ± 0.25 mmol/L
PRO [11]: 5.11 ± 0.19 g/dL
TG [11]: 195.71 ± 47.00 mg/dL
Autopsy: Liver Discolorization [12]: 7/7
Autopsy: Liver Discolorization 1+ [12]: 0/7
Autopsy: Liver Discolorization 2+ [12]: 1/7
Autopsy: Liver Discolorization 3+ [12]: 6/7
Autopsy: Liver Normal [12]: 0/7
Autopsy: Lung Congestion [12]: 2/7
Autopsy: Lung Congestion 1+ [12]: 2/7
Autopsy: Lung Normal [12]: 5/7
Autopsy: Lymph nodes Hypertrophy [12]: 7/7
Autopsy: Lymph nodes Hypertrophy 1+ [12]: 0/7
Autopsy: Lymph nodes Hypertrophy 2+ [12]: 4/7
Autopsy: Lymph nodes Hypertrophy 3+ [12]: 3/7
Autopsy: Lymph nodes Normal [12]: 0/7
Autopsy: Others Normal [12]: 7/7
Autopsy: Spleen Hypertrophy [12]: 7/7
Autopsy: Spleen Hypertrophy 1+ [12]: 0/7
Autopsy: Spleen Hypertrophy 2+ [12]: 4/7
Autopsy: Spleen Hypertrophy 3+ [12]: 3/7
Autopsy: Spleen Normal [12]: 0/7
Histopathology: Fundus Normal [13]: 5/7
Histopathology: Fundus fCV 1+ (local cysts) [13]: 2/7
Histopathology: Liver IF 1+ (inflammatory cell infiltration) [13]: 0/7
Histopathology: Liver IF-FN 1+ (infiltration with local necrosis) [13]: 0/7
Histopathology: Liver IF-FN 2+ [13]: 1/7
Histopathology: Liver IF-FN 3+ [13]: 6/7
Histopathology: Liver Normal [13]: 0/7
Histopathology: Lung CG 1+ (hyperemia) [13]: 1/7
Histopathology: Lung Normal [13]: 6/7
Histopathology: Lymph nodes Normal [13]: 0/7
Histopathology: Lymph nodes dHP 1+ (diffused lymphocyte hyperplasia) [13]: 0/7
Histopathology: Lymph nodes dHP 2+ [13]: 4/7
Histopathology: Lymph nodes dHP 3+ [13]: 3/7
Histopathology: Others Normal [13]: 7/7
Histopathology: Spleen Normal [13]: 0/7
Histopathology: Spleen rHP 1+ (red pulp lymphocyte hyperplasia) [13]: 0/7
Histopathology: Spleen rHP 2+ [13]: 3/7
Histopathology: Spleen rHP 3+ [13]: 4/7
change in SOD activity in the liver tissue [14]: −81.18%
change in content of GSH in the liver tissue [14]: −69.14%
change in liver lipid peroxidation [14]: 129.64%
change in the viability of NCI-H520 cells vs vehicle control ([15]; gefitinib 0.001 μM): −3.29%
change in the viability of NCI-H520 cells vs vehicle control ([15]; gefitinib 0.01 μM): −7.47%
change in the viability of NCI-H520 cells vs vehicle control ([15]; gefitinib 0.1 μM): −17.73%
change in the viability of NCI-H520 cells vs vehicle control ([15]; gefitinib 1 μM): −29.55%
change in the viability of NCI-H520 cells vs vehicle control ([15]; gefitinib 5 μM): −53.53%
change in the viability of NCI-H520 cells vs vehicle control ([15]; gefitinib 10 μM): −62.71%
change in the viability of NCI-H520 cells vs vehicle control ([15]; gefitinib 50 μM): −71.11%
